DBAASP
≈ marks a conversion by molar mass, not a printed value. Where “and” joins values, the source holds several entries; their conditions need not be identical. Identical values can stand only once. Values belong to the compound of their own block, whether it stands above or below them.

Tests used:
Experiment in all cases: ≥ marks a high value that may be exact or a test limit, other limits are often not marked, values filed in µg/mL are converted to µM
[1] = tested on: Escherichia coli ATCC 25922
[2] = tested on: Saccharomyces cerevisiae CGMCC 2.3973
[3] = tested on: Bacillus subtilis ATCC 6633
[4] = tested on: Pseudomonas aeruginosa ATCC 27853
[5] = tested on: Staphylococcus aureus ATCC 25923
[6] = tested on: Salmonella enterica subsp. enterica serovar Typhimurium ATCC 14028
[7] = tested on: Streptococcus iniae KCTC 3657
[8] = tested on: Bacillus cereus ATCC 10876
[9] = tested on: Staphylococcus aureus ATCC 29213
[10] = tested on: Staphylococcus aureus ATCC 27660
[11] = tested on: Pseudomonas aeruginosa ATCC 10145
Escherichia coli D31 = tested on: Escherichia coli D31
[12] = tested on: Klebsiella pneumoniae ATCC 700603
[13] = tested on: Pseudomonas aeruginosa CCARM 2095
[14] = tested on: Staphylococcus aureus CCARM 3089
[15] = tested on: Staphylococcus aureus CCARM 3090
[16] = tested on: Pseudomonas aeruginosa CCARM 2109
[17] = tested on: Salmonella typhimurium KCTC 1926
[18] = tested on: Staphylococcus epidermidis KCTC 1917
[19] = tested on: Bacillus subtilis KCTC 3068
[20] = tested on: Pseudomonas aeruginosa KCTC 1637
[21] = tested on: Staphylococcus aureus CCARM 3095
[22] = tested on: Enterococcus faecium ATCC 51559
[23] = tested on: Escherichia coli KCTC 1682
[24] = tested on: Bacillus subtilis KCTC 1998
[25] = tested on: Escherichia coli CCARM 1238
[26] = tested on: Candida albicans KCTC 7270
[27] = tested on: Trichosporon beigelii KCTC 7707
[28] = tested on: Staphylococcus aureus CCARM 3518
[29] = tested on: Pseudomonas aeruginosa 4007
[30] = tested on: Listeria monocytogenes KCTC 3710
[31] = tested on: Escherichia coli CCARM 1229
[32] = tested on: Pseudomonas aeruginosa 4891
[33] = tested on: Staphylococcus aureus LAC
[34] = tested on: Xanthomonas arboricola pv. pruni CFBP 5563
[35] = tested on: Xanthomonas fragariae Xf349-9A
[36] = tested on: Xanthomonas campestris pv. Vesicatoria 2133-2
[37] = tested on: Pseudomonas syringae pv. syringae EPS 94
[38] = tested on: Pseudomonas syringae pv. actinidiae Psa3700.1.1
[39] = tested on: Erwinia amylovora PMV 6076

Compound: CC[C@H](C)[C@H](NC(=O)CNC(=O)[C@@H](NC(=O)[C@H](CCCCN)NC(=O)[C@@H](NC(=O)[C@H](CCCCN)NC(=O)[C@H](CCCCN)NC(=O)[C@H](CC(=O)O)NC(=O)CNC(=O)[C@H](C)N)[C@@H](C)CC)[C@@H](C)CC)C(=O)N[C@@H](CC(N)=O)C(=O)NCC(=O)N[C@@H](Cc1ccccc1)C(=O)NCC(=O)N[C@@H](CCCN=C(N)N)C(=O)N[C@H](C(=O)NCC(=O)N[C@@H](CCCN=C(N)N)C(=O)N[C@@H](CC(C)C)C(=O)O)[C@@H](C)CC [AGDKKIKIGINGFGRIGRL]
MIC [1]: 31.8 µM (≈ 64 µg/mL) | MIC [2]: ≥ 254 µM | MIC [3]: ≥ 254 µM | MIC [4]: > 254 µM | MIC [5]: 254 µM (≈ 512 µg/mL)

Compound: CSCC[C@H](NC(=O)[C@H](Cc1ccccc1)NC(=O)[C@H](CCCCN)NC(=O)[C@H](CCCN=C(N)N)NC(=O)[C@H](Cc1ccccc1)NC(=O)CNC(=O)[C@H](CC(N)=O)NC(=O)[C@H](CCCN=C(N)N)NC(=O)[C@H](CCCCN)NC(=O)[C@@H](NC(=O)[C@H](CCCN=C(N)N)NC(=O)[C@@H](N)Cc1cnc[nH]1)C(C)C)C(=O)N[C@@H](CCCN=C(N)N)C(=O)N[C@@H](CCCN=C(N)N)C(=O)N[C@@H](CC(C)C)C(=O)N[C@@H](CCCCN)C(=O)N[C@@H](CCCCN)C(=O)N[C@@H](Cc1ccccc1)C(=O)N[C@@H](Cc1ccccc1)C(=O)N[C@@H](C)C(=O)NCC(=O)NCC(=O)O [HRVKRNGFRKFMRRLKKFFAGG]
MIC [6]: 0.731 µM (≈ 2 µg/mL) | MIC [1]: 1.1 µM (≈ 3 µg/mL) | MIC [7]: 11.7 µM (≈ 32 µg/mL) | MIC [8]: 11.7 µM (≈ 32 µg/mL) | MIC [9]: > 46.8 µM | MIC [4]: 2.92 µM (≈ 8 µg/mL)

Compound: CC[C@H](C)[C@H](NC(=O)CNC(=O)[C@H](CCCCN)NC(=O)[C@H](Cc1ccccc1)NC(=O)[C@H](CC(C)C)NC(=O)[C@H](CCCCN)NC(=O)[C@H](CCCCN)NC(=O)[C@H](C)NC(=O)[C@H](CCCCN)NC(=O)[C@H](CCCCN)NC(=O)[C@H](Cc1c[nH]c2ccccc12)NC(=O)CNC(=O)[C@H](CCCCN)NC(=O)[C@H](C)NC(=O)[C@H](Cc1ccccc1)NC(=O)[C@@H](NC(=O)[C@H](CCCCN)NC(=O)[C@@H](NC(=O)[C@H](CC(C)C)NC(=O)[C@H](CCCCN)NC(=O)[C@@H](N)CCCCN)[C@@H](C)CC)C(C)C)C(=O)NCC(=O)O [KKLIKVFAKGWKKAKKLFKGIG]
MIC [10]: 0.47 µM (≈ 1.18 µg/mL) | MIC [11]: 1.88 µM (≈ 4.73 µg/mL) | MIC (Escherichia coli D31): 0.94 µM (≈ 2.37 µg/mL) | MIC [12]: 1.88 µM (≈ 4.73 µg/mL)

Compound: CC[C@H](C)[C@H](NC(=O)[C@H](Cc1ccccc1)NC(=O)[C@H](CCCN=C(N)N)NC(=O)[C@@H](N)CCCCN)C(=O)N[C@@H](CCCCN)C(=O)N[C@@H](Cc1c[nH]c2ccccc12)C(=O)N[C@@H](Cc1ccc(O)cc1)C(=O)N[C@@H](CCCCN)C(=O)N[C@@H](C)C(=O)N[C@@H](Cc1c[nH]c2ccccc12)C(=O)N[C@@H](CC(N)=O)C(=O)N[C@@H](CCCCN)C(=O)N[C@@H](CCCCN)C(=O)N[C@@H](Cc1c[nH]c2ccccc12)C(=O)N[C@@H](CCCN=C(N)N)C(=O)N[C@@H](CCCCN)C(=O)N[C@@H](Cc1ccc(O)cc1)C(N)=O [KRFIKWYKAWNKKWRKY]
MIC [13]: 4 µM (≈ 9.72 µg/mL) | MIC [14]: 2 µM (≈ 4.86 µg/mL) | MIC [15]: 2 µM (≈ 4.86 µg/mL) | MIC [16]: 8 µM (≈ 19.4 µg/mL) | MIC [17]: 2 µM (≈ 4.86 µg/mL) | MIC [18]: 4 µM (≈ 9.72 µg/mL) | MIC [19]: 8 µM (≈ 19.4 µg/mL) | MIC [20]: 2 µM (≈ 4.86 µg/mL) | MIC [21]: 2 µM (≈ 4.86 µg/mL) | MIC [22]: 4 µM (≈ 9.72 µg/mL) | MIC [23]: 4 µM and 8 µM

Compound: CC[C@H](C)[C@H](NC(=O)[C@H](CCCCN)NC(=O)[C@H](CCCCN)NC(=O)[C@@H](NC(=O)[C@H](C)NC(=O)[C@H](CCC(=O)O)NC(=O)[C@H](Cc1cnc[nH]1)NC(=O)[C@@H](NC(=O)CNC(=O)[C@H](CCC(N)=O)NC(=O)[C@H](Cc1ccccc1)NC(=O)[C@@H](NC(=O)[C@H](CCCCN)NC(=O)[C@H](CCCCN)NC(=O)[C@H](CC(C)C)NC(=O)[C@H](C)NC(=O)[C@H](CC(N)=O)NC(=O)[C@@H](N)CC(C)C)C(C)C)[C@@H](C)CC)[C@@H](C)CC)C(N)=O [LNALKKVFQGIHEAIKKI]
MIC [24]: 4 µM (≈ 8.2 µg/mL) | MIC [1]: 2 µM (≈ 4.1 µg/mL) | MIC [15]: 4 µM (≈ 8.2 µg/mL) | MIC [25]: 2 µM (≈ 4.1 µg/mL) | MIC [26]: 16 µM (≈ 32.8 µg/mL) | MIC [17]: 4 µM (≈ 8.2 µg/mL) | MIC [27]: 16 µM (≈ 32.8 µg/mL) | MIC [28]: 4 µM (≈ 8.2 µg/mL) | MIC [29]: 4 µM (≈ 8.2 µg/mL) | MIC [30]: 8 µM (≈ 16.4 µg/mL) | MIC [31]: 2 µM (≈ 4.1 µg/mL) | MIC [32]: 8 µM (≈ 16.4 µg/mL) | MIC [4]: 4 µM (≈ 8.2 µg/mL) | MIC [5]: 4 µM (≈ 8.2 µg/mL)

Continued, values first:

MIC [1]: 20.3 µM (≈ 32 µg/mL) | MIC [33]: 10.2 µM (≈ 16 µg/mL)
Compound: NC(N)=NCCC[C@H](NC(=O)[C@H](CCCN=C(N)N)NC(=O)[C@H](CCCN=C(N)N)NC(=O)[C@@H](N)CCCN=C(N)N)C(=O)N[C@@H](Cc1c[nH]c2ccccc12)C(=O)N[C@@H](Cc1c[nH]c2ccccc12)C(=O)N[C@@H](Cc1c[nH]c2ccccc12)C(=O)N[C@@H](Cc1c[nH]c2ccccc12)C(=O)N[C@@H](Cc1c[nH]c2ccccc12)C(=O)O [RRRRWWWWW]

MIC [34]: ≥ 50 µM | MIC [35]: ≥ 50 µM | MIC [36]: ≥ 50 µM | MIC [37]: ≥ 50 µM | MIC [38]: ≥ 50 µM | MIC [39]: ≥ 50 µM
Compound: CC(C)[C@H](N)C(=O)N[C@@H](Cc1c[nH]c2ccccc12)C(=O)N[C@@H](CC(N)=O)C(=O)N[C@@H](CCC(N)=O)C(=O)N1CCC[C@H]1C(=O)N[C@H](C(=O)N[C@@H](CCCN=C(N)N)C(=O)NCC(=O)N[C@@H](Cc1ccccc1)C(=O)N[C@@H](CCCCN)C(=O)N[C@H](C(=O)N[C@@H](Cc1ccc(O)cc1)C(=O)N[C@@H](CCC(=O)O)C(=O)O)C(C)C)C(C)C [VWNQPVRGFKVYE]
